For one assay, the system named is PNT1a. The assay is described as follows: MTT cytotoxicity, 72 h. It counts as cell-based. The note with it: Homo sapiens, PNT1A, octanoic acid.
Assay [1] relates to HDAC enzymes in HCT-116 cells. The assay is described as follows: HDAC fluorimetric cellular activity assay. The format is cell-based, human. The note with it: 1 mM (1000-fold higher concentration). The protocol: These epigenetic processes consist in downregulation of HDACs and yet other biochemical processes triggered by VPA released in cells by the reduction of the Pt(IV) prodrug. Moreover, it has also been shown[15] that non-branched MCFAs may act as HDAC inhibitors. […] HDAC activity was analyzed in HCT-116 cells and confirmed by an independent set of experiments on A2780 cells (data not shown) by using a commercial HDAC fluorimetric cellular activity kit as described in the section Materials and methods.
Figure 3 Activity of HDAC enzymes in HCT-116 cells treated with the compounds tested in the present work; their concentration was 1 µM except the concentration of free OA, which was 1 mM. […] The data represent a mean from three independent experiments, each performed in quadruplicate. The error bars are the SDs.
The activity of HDAC enzymes was analyzed in HCT-116 cells treated with compounds tested in the present work (1 µM). […] The activity of HDAC was analyzed using the HDAC fluorimetric cellular activity assay kit (Enzo Life Sciences; Farmingdale, NY) in the whole cells according to manufacturer’s instructions. […] The plates were scanned on a fluorescence reader Infinite 200 (TECAN) (360 nm excitation, 460 nm emission).

Assay [2] deals with HSF human primary skin fibroblasts. The assay is described as follows: MTT cytotoxicity, 72 h. The format is cell-based. The note with it: Homo sapiens, Skin fibroblast, octanoic acid. The protocol:
(§1) Cytotoxic activity of the compounds tested in the present work was screened on the panel of malignant and nonmalignant cell lines using the colorimetric MTT assay and 72 h of drug incubation period.
(§2) Cell death was evaluated using a system based on the tetrazolium compound MTT [3-(4,5-dimethyl-2-thiazolyl)-2,5-diphenyl-2H-tetrazolium bromide]. The cells were seeded in 96-well tissue culture plates at a density of 10^4 A2780cisR, LNCaP, HSF cells/well, 3 × 10^3 CHO-K1 or 4 × 10^3 MCF7, HCT-116 and MRC5 pd30 cells/well in 100 μL of medium. After overnight incubation (16 h), the cells were treated with the compounds in a final volume of 200 μL/well. After additional 72 h, 10 μL of a freshly diluted MTT solution (2.5 mg mL^−1) was added to each well, and the plate was incubated at 37 °C in a humidified 5% CO2 atmosphere for 4 h. At the end of the incubation period, the medium was removed, and the formazan product was dissolved in 100 μL of DMSO. The cell viability was evaluated by measurement of the absorbance at 570 nm, using an Absorbance Reader SUNRISE TECAN SCHOELLER. IC50 values were calculated from curves constructed by plotting cell survival (%) versus drug concentration (μM). All experiments were made in triplicate. The reading values were converted to the percentage of control (% cell survival). Cytotoxic effects were expressed as IC50.

For assay [3], the system named is HCT-116 human colorectal carcinoma cells. Nature of the assay: MTT cytotoxicity, 72 h. The format is cell-based. The note with it: Homo sapiens, HCT-116; MTT, 72 h, octanoic acid. The protocol: as §1, §2
Assay [4] has as its system CHO-K1 Chinese hamster ovary cells. The assay is described as follows: MTT cytotoxicity, 72 h. The format is cell-based. To be noted: Cricetulus griseus, CHO-K1, octanoic acid. As for the experimental part: as §1, §2
The subject of assay [5] is A2780cisR human ovarian carcinoma cells. Nature of the assay: MTT cytotoxicity, 72 h. The format is cell-based. As for the experimental part:
as §1, §2

Assay [6] relates to MRC-5 (PD30) human fetal lung fibroblasts. The assay is described as follows: MTT cytotoxicity, 72 h. It counts as cell-based. To be noted: Homo sapiens, MRC5, octanoic acid. The protocol:
as §1, §2

Assay [7] has as its system LNCaP human prostate adenocarcinoma cells. Nature of the assay: MTT cytotoxicity, 72 h. It counts as cell-based. The note with it: Homo sapiens, LNCaP, octanoic acid. The protocol: as §1, §2
Assay [8] concerns MCF-7 human breast cancer cells. The assay is described as follows: MTT cytotoxicity, 72 h. The note with it: octanoic acid. It counts as cell-based. The protocol:
as §1, §2

Assay [9] relates to DNMT enzymes in HCT-116 cells. Nature of the assay: DNMT activity in nuclear extracts of treated cells. The format is cell-based, human. On the set-up: unit of the concentration uncertain. To be noted: HCT-116, 1 (unit uncertain), 24 h. The protocol: In these experiments, the total activity of DNMT enzymes was determined in nuclear extracts prepared from HCT-116 cells which were treated with the platinum compounds, free OA or decitabine for 24 h (Fig. 4B).
Human colon carcinoma cells (HCT-116) were seeded in 100 mm culture dishes at the density 1.5 × 10^6 cells/dish. Cells were harvested after 24 h of incubation with the compounds tested in the present work (1 µM). Nuclear extracts from the pellets were separated using EpiQuik Nuclear extraction kit I (Epigentek, NY) according to manufacturer’s instructions. Quantification of nuclear proteins was analyzed with the standard Bradford assay. The activity of DNMT enzymes was analyzed using the EpiQuik DNMT activity/inhibition assay Ultra kit (Epigentek, NY), according to the manufacturer´s protocol. Briefly, 10 µg of total nuclear protein was analyzed for its DNMT activity. The reaction time with a universal DNMT substrate stably coated onto microplate wells was 120 min at 37 °C. The final signal at the end of the ELISA reaction was detected at 450 nm (reference 620 nm). DNMT activity was normalized to controls and expressed in the percent or absolute values as OD h^−1 mg^−1, calculated as described in the manufacturer’s manual.

Assay [10] concerns A2780 human ovarian carcinoma cells. The assay is described as follows: MTT cytotoxicity, 72 h. It counts as cell-based. The note with it: Homo sapiens, A2780; MTT, 72 h, octanoic acid.
For assay [11], the system named is DNA methylation in HCT-116 cells. The assay is described as follows: DNA methylation analysis (Imprint methylated DNA quantification kit). The note with it: HCT-116, free OA at sufficiently high (milimolar) concentration. The format is cell-based, human. The protocol:
Human colon adenocarcinoma cells HCT-116 were chosen as the model cellular system suitable for DNA methylation analysis because: (i) this human colorectal cancer cell line has been used as a prototypic model for analyses of the genetic basis of cancer, and the role of epigenetic changes in tumorigenesis; (ii) they have a propensity to both global DNA hypomethylation and to silence genes through promoter focal hypermethylation, [21]. HCT-116 cells were treated with the compounds at the concentrations indicated in Fig. 4A for 24 or 72 h and DNA was isolated for the complete methylation analysis as described in the experimental section. Decitabine (5-aza-2′-deoxycytidine), a hypomethylating agent which hypomethylates DNA by inhibiting DNMT, was used in these experiments as a […]. The IC50 values found for this agent in HCT-116 cells (the drug-treatment period was 72 h) was (7.5 ± 0.3) µM (Table 1).
Figure 4 Analysis of DNA methylation. (A) DNA was isolated from HCT-116 cells after the exposure to the agents at the concentrations indicated in the graph for 24 or 72 h. The levels of DNA methylation in the control was taken as 100%. The bars represent mean values from three independent experiments each performed in octuplicate. The error bars are the SDs. (B) DNMT activity in colon carcinoma cells HCT-116 treated for 24 h with the compounds tested in the present work. The DNMT activity in the control, untreated cells was taken as 100%. Error bars are the SDs and the stars at the top of bars denote a significant difference from the control with (*p < 0.05; **p < […]), calculated using […] student’s t-test. The bars represent mean values from three independent experiments, each performed in quadruplicate.
Human colon carcinoma cells (HCT-116) were seeded at the density 1.5 × 10^6 cells/dish. […] The DNA content in each sample was determined by UV spectrophotometry. DNA (200 ng) from the samples was loaded to the Imprint methylated DNA quantification kit (Sigma-Aldrich, USA). The level of methylated DNA was proportional to the absorbance measured at 450 nm.

Regarding `CCCCCCCC(=O)O` [OA, octanoic acid, reference compound], the IC50 with PNT1a stood at 2.07 ± 0.03 mM; in assay [2], 9.74 ± 0.03 mM; in assay [3], 3.84 ± 0.39 mM; in assay [4], 5.9 ± 0.7 mM; in assay [5] (Homo sapiens, A2780cisR, MTT, 72 h, octanoic acid), 0.76 ± 0.02 mM; in assay [6], 7.67 ± 0.61 mM. The IC50 in [7] was determined as 0.71 ± 0.12 mM; in [8] (Homo sapiens, MCF7, 72 h) it was 16 mM; in assay [8] it was 16.2 ± 0.56 mM; in assay [10] it was 1.46 ± 0.1 mM. Moreover, in assay [1], the “Efficiency to inhibit HDAC activity” value is “moderate inhibitory effect”. Moreover, the “RF, resistance factor” value in assay [5] (IC50 (resistant, A2780cisR)/IC50 (sensitive, A2780)) is on record as 0.5. In addition, the “Activity of DNMT enzymes” value in assay [9] is “enhanced activity of DNMT enzymes”. In addition, the “Change of DNA methylation” value in [11] is “capable of inducing DNA hypermethylation”.

These data come from paper PMC5473904, “Epigenetic and antitumor effects of platinum(IV)-octanoato conjugates” (Scientific Reports, 2017).
